# Literature values, collected in patent US10039775B2, “Preparation method for antitumor drug AP26113” (SUZHOU MIRACPHARMA TECHNOLOGY CO., LTD., priority 2015, dated 2018).
# Columns and labels:
# [1] = test system: ALK positive nonsmall cell lung cancer; conditions: clinical data; patients with ALK positive nonsmall cell lung cancer, including brain metastases patients
# ALK = ALK (Homo sapiens, UniProt Q9UM73); conditions: ratio versus crizotinib
# [2] = test system: crizotinib resistant ALK mutation; conditions: nine identified crizotinib resistant ALK mutations
# Sequence of ALK (Q9UM73 19-1620): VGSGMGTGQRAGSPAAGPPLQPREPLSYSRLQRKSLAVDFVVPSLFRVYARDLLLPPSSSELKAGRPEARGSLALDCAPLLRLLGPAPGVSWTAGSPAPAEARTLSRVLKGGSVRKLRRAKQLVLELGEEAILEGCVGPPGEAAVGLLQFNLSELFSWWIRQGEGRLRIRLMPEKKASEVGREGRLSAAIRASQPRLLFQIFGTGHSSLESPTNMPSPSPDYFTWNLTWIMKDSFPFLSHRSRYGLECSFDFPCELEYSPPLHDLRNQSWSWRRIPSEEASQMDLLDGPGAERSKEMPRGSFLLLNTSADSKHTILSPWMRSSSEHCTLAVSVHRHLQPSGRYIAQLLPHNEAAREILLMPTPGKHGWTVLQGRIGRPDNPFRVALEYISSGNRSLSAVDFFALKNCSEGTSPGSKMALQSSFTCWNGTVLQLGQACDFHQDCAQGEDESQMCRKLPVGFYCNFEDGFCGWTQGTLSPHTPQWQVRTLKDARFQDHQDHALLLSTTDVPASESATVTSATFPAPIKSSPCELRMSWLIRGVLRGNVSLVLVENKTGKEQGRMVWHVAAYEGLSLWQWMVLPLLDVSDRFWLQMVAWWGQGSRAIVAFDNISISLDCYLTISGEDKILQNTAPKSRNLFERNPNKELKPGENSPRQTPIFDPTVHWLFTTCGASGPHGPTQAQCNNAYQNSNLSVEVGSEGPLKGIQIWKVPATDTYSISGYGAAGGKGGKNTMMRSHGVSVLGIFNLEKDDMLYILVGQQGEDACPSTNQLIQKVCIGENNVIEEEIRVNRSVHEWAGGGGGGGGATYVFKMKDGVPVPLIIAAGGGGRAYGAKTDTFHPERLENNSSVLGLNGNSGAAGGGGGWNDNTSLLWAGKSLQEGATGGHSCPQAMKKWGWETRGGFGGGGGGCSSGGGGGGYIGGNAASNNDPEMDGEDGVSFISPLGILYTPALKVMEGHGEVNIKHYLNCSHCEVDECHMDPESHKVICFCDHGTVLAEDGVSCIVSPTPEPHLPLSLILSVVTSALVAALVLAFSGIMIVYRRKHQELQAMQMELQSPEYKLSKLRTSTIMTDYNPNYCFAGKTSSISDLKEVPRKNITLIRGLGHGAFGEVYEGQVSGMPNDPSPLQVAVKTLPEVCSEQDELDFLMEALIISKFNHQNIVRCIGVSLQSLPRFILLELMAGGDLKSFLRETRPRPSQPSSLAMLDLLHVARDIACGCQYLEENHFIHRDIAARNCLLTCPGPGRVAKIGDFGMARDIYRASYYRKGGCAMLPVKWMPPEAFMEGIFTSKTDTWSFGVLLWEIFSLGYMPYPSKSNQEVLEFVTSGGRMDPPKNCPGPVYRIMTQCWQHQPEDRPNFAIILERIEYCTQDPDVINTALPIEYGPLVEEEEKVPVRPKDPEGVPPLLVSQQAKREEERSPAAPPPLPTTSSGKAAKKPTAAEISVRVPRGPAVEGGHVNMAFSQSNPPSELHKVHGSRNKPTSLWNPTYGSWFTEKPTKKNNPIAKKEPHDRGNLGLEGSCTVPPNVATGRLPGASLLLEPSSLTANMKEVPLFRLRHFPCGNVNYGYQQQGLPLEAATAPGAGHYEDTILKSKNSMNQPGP
compound,measurement,setting,value
"COc1cc(N2CCC(N(C)C)CC2)ccc1Nc1ncc(Cl)c(Nc2ccccc2P(C)(C)=O)n1 [AP26113, 5-chloro-N2-[4-[4-(dimethylamino)-1-piperidyl]-2-methoxyphenyl]-N4-[2-(dimethyl phosphitylate)phenyl]-2,4-diaminopyrimidine]",anti-tumor activity on patients,[1],continuous anti-tumor activity
same,inhibitory activity to ALK relative to the inhibitor activity of crizotinib to ALK,ALK,about 10 times
same,inhibition of all nine identified crizotinib resistant ALK mutation,[2],can be inhibited
